Results reported in PubChem BioAssay AID651630 (Sanford-Burnham Center for Chemical Genomics, 2012).
Calls of active or inactive are those of the source.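 Rule for the calls: active = lipid-stain IC50 at or below a set limit, with nuclear-stain toxicity IC50 at least five times higher; inactive = the rest.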

Tests used:
DAPI = assay: TAG lipid buildup inhibition with viability readout – cell-based, panel, Nile Red and DAPI fluorescence, H9c2, dose response (AID 651630); settings: H9c2 cells, DAPI nuclear fluorescence (cytotoxicity counter-readout), oleic acid;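 note: cells exposed to compound overnight before fixation and staining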
TAG = assay: as above; settings: H9c2 cells, Nile Red TAG fluorescence, oleic acid

Row | Structure (SMILES) | IC50 cytotoxicity (DAPI nuclear signal decrease) (DAPI; mean of runs) | IC50 cytotoxicity (DAPI nuclear signal decrease) (DAPI; run 1) [µM] | IC50 cytotoxicity (DAPI nuclear signal decrease) (DAPI; run 2) [µM] | IC50 (TAG; mean of runs) | IC50 (TAG; run 1) [µM] | IC50 (TAG; run 2) [µM]
1 | Cc1c(C#N)c(O)n(CCO)c(=O)c1N=Nc1ccc2c(c1)COC2=O | 19.9 µM (inactive) | 24.4 | 15.3 | 16.5 µM (inactive) | 14.3 | 18.6
2 | COc1ccccc1N1CCN(CC(=O)Nc2cc(C)nn2-c2nc(C)cc(C)n2)CC1 | > 25 µM (inactive) | > 25 | > 25 | 18.9 µM (inactive) | 19.7 | 18.1
3 | O=[N+]([O-])c1ccccc1/C=C/C=N/Nc1ccc(S(=O)(=O)Nc2ccc(Cl)cc2)cc1[N+](=O)[O-] |  | > 25 | > 25 | 4.41 µM | 3.5 | 5.32
4 | Cc1ccccc1NC(=O)CSc1nc2ccc(Nc3nc(N4CCOCC4)nc(N4CCOCC4)n3)cc2s1 | > 25 µM (inactive) | > 25 | > 25 | 10.7 µM | 10.6 | 10.8
5 | CCN(CC)c1ccc(/C=C2\CCC(/C=C(/C#N)C(=O)Nc3ccccc3F)=C2N2CCOCC2)cc1 |  | > 25 | > 25 | < 0.78 µM | < 0.78 | < 0.78
6 | COc1ccc(CCn2c(-n3nc(C)cc3C)nc3c2c(=O)[nH]c(=O)n3C)cc1 | > 25 µM (inactive) | > 25 | > 25 | > 25 µM (inactive) | > 25 | > 25
7 | COc1cc2c3c(c1)c(C1=NC(=S)NC1=O)c(O)n3C(C)(C)C=C2C | > 25 µM (inactive) | > 25 | > 25 | 6 µM | 6.7 | 5.3
8 | CCCOC(=O)c1ccc(NC(=O)CCOc2ccccc2)cc1 | > 25 µM (inactive) | > 25 | > 25 | 21.5 µM (inactive) | 18.2 | 24.7
9 | COC(=O)c1c(NC(=S)NN2CCN(C)CC2)sc2c1CCC(C)C2 (stereo not drawn) | 17.8 µM (inactive) | 18.5 | 17.1 |  | > 25 | 15.1
10 | CC1(C(=O)NCc2ccco2)Cc2c(-c3ccc4c(c3)OCO4)ccnc2O1 (stereo not drawn) | > 25 µM (inactive) | > 25 | > 25 |  | 17.1 | > 25
11 | O=C(Nc1cccc(-c2csc(Nc3cccc(C(F)(F)F)c3)n2)c1)c1cc([N+](=O)[O-])cc(C(F)(F)F)c1 | > 25 µM (inactive) | > 25 | > 25 | > 25 µM (inactive) | > 25 | > 25
12 | CNCCCN1c2ccccc2CCc2ccccc21 | > 25 µM (inactive) | > 25 | > 25 | > 25 µM (inactive) | > 25 | > 25
13 | CCN(CC)CCCN(C(=O)c1cccs1)c1nc(-c2ccc(OC)cc2)cs1 | > 25 µM (inactive) | > 25 | > 25 | 10.3 µM | 10.5 | 10
14 | CC(C)=CCNc1ncnc2c1c(C#N)cn2C1OC(CO)C(O)C1O (stereo not drawn) | > 25 µM (inactive) | > 25 | > 25 | > 25 µM (inactive) | > 25 | > 25
15 | C[C@@]12C(=O)Nc3ccc(Br)cc3C(=O)N1[C@H]1c3cc(Br)ccc3OC[C@@H]1[C@@H]2c1ccccc1 |  | > 25 | > 25 | 4.98 µM | 4.48 | 5.47
16 | CCN(CC)CCNC(=O)C(Cl)=C1C(Cl)=C(Cl)C(Cl)=C1Cl | 21.4 µM (inactive) | 20.2 | 22.7 | > 25 µM (inactive) | > 25 | > 25
17 | O=C(Nc1ccc(-c2csc(Nc3ccccc3)n2)cc1)c1cccc(C(F)(F)F)c1 | > 25 µM (inactive) | > 25 | > 25 |  | 15.3 | > 25

Row | Structure (SMILES) | IC50 cytotoxicity (DAPI nuclear signal decrease) (DAPI; mean of runs) | IC50 cytotoxicity (DAPI nuclear signal decrease) (DAPI; run 1) [µM] | IC50 cytotoxicity (DAPI nuclear signal decrease) (DAPI; run 2) [µM] | IC50 (TAG; mean of runs) | IC50 (TAG; run 1) [µM] | IC50 (TAG; run 2) [µM]
18 | Cc1ccc(NC(=S)N(CCCN2CCCC2)Cc2cccn2Cc2ccc(Cl)cc2)cc1Cl |  | > 25 | 23.1 | > 25 µM (inactive) | > 25 | > 25
19 | COc1cc(C2c3cc4c(cc3OC(C)(N3CCCC3)C2C)OCO4)cc(OC)c1OC (stereo not drawn) | > 25 µM (inactive) | > 25 | > 25 | 13.8 µM | 10.4 | 17.1
20 | CCN(CC)CCNc1nc2cc(OC)c(OC)cc2c2nc(-c3ccccc3)nn12 | > 25 µM (inactive) | > 25 | > 25 | > 25 µM (inactive) | > 25 | > 25
21 | O=C(c1ccoc1)N1CCN(c2cc(-c3cccc(F)c3)nc3cc(-c4cccc(Cl)c4)nn23)CC1 | > 25 µM (inactive) | > 25 | > 25 | > 25 µM (inactive) | > 25 | > 25
22 | COc1ccc(OC)c(NS(=O)(=O)c2ccc(N3CCCC3=O)cc2)c1 | > 25 µM (inactive) | > 25 | > 25 | > 25 µM (inactive) | > 25 | > 25
23 | O=C(CCC1CCCCC1)NCCN1C2=NC[C@@H](Cc3ccccc3)N2C[C@H]1Cc1ccc(O)cc1 | > 25 µM (inactive) | > 25 | > 25 | > 25 µM (inactive) | > 25 | > 25
24 | Cc1ccsc1-c1nc(C(N)=O)c2[nH]c(=O)n(-c3ccc(Cl)cc3)c2n1 | > 25 µM (inactive) | > 25 | > 25 | > 25 µM (inactive) | > 25 | > 25
25 | CCOC(=O)c1c(NC(C)=O)sc2c(OCC(O)CN(CC)CC)c(Br)ccc12 (stereo not drawn) | > 25 µM (inactive) | > 25 | > 25 |  | > 25 | 22.1
26 | Cc1ccc(CNC(=O)c2ccc(N3CCC4(CC3)CC(c3ccccc3)=NO4)c(NC(=O)c3ccc(Br)cc3)c2)cc1 |  | > 25 | > 25 | 4.43 µM | 3.68 | 5.18
27 | COC(=O)Nc1nc2ccc(SC(C)C)cc2[nH]1 | > 25 µM (inactive) | > 25 | > 25 |  | > 25 | 13.9
28 | O=C(/C=C/Sc1ccc(C(F)(F)F)cn1)c1ccccc1 |  | 21 | > 25 | > 25 µM (inactive) | > 25 | > 25
29 | CC(=O)OC12COC1CC(O)C1(C)C(=O)C(O)C3=C(C)C(O)CC(O)(C(OC(=O)c4ccccc4)C21)C3(C)C (stereo not drawn) | > 25 µM (inactive) | > 25 | > 25 | 9.4 µM | 9.73 | 9.07
30 | Nc1ccccc1Nc1cccc(C(F)(F)F)c1 | > 25 µM (inactive) | > 25 | > 25 | 11.2 µM | 9.51 | 12.9
31 | COc1ccc2sc(-c3ccc(N(C)C)cc3)c(C#CCCO)c2c1 | > 25 µM (inactive) | > 25 | > 25 | 8.86 µM | 7.52 | 10.2
32 | Cc1nc2c(ccc3nc(NC(=O)Cc4cccc5ccccc45)sc32)s1 | > 25 µM (inactive) | > 25 | > 25 | 13.3 µM | 11.5 | 15.1
33 | C/C(=N\Nc1ccc(Cl)nn1)c1ccccc1O | > 25 µM (inactive) | > 25 | > 25 | > 25 µM (inactive) | > 25 | > 25
34 | COc1cc2ccccc2cc1C(=O)N/N=C/c1cccs1 | > 25 µM (inactive) | > 25 | > 25 | > 25 µM (inactive) | > 25 | > 25
